Measurements taken from ChEMBL document CHEMBL3774325, “Design, synthesis, and structure-activity relationship study of glycyrrhetinic acid derivatives as potent and selective inhibitors against human carboxylesterase 2” (Eur J Med Chem, 2016).
pIC50: −log10 of the molar value.

Experiments:
Liver carboxylesterase 1 = target: T1, Liver carboxylesterase 1 (Homo sapiens, UniProt P23141); test: Inhibition of CE1 in human liver microsomes using 2-(2-Benzoyl-3-methoxyphenyl) benzothiazole as substrate preincubated for 10 mins followed by substrate addition measured after 30 mins by LC-UV analysis
T1 sequence (P23141 whole entry): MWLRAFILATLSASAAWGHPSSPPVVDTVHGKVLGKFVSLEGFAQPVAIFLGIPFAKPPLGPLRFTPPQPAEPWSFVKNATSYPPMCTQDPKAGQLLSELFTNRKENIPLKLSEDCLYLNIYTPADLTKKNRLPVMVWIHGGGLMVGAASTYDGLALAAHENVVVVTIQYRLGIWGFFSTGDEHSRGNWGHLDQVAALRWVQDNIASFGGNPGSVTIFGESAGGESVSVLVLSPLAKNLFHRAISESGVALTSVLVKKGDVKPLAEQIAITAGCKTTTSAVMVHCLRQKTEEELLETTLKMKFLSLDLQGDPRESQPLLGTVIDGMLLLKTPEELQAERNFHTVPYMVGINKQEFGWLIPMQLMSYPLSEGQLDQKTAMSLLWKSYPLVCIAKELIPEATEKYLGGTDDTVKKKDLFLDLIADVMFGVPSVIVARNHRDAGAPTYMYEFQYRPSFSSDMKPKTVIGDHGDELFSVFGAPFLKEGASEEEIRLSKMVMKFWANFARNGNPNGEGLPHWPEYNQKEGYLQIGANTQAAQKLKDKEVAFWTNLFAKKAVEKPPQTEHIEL

Homo sapiens = organism: Homo sapiens; test: Selectivity ratio of IC50 for CE1 in human liver microsomes to IC50 for CE2 in human liver microsomes
Cocaine esterase = target: T2, Cocaine esterase (Homo sapiens, UniProt O00748); test: Inhibition of CE2 in human liver microsomes using fluorescein diacetate as substrate preincubated for 10 mins followed by substrate addition measured after 30 mins by LC-UV analysis
T2 sequence (O00748 whole entry): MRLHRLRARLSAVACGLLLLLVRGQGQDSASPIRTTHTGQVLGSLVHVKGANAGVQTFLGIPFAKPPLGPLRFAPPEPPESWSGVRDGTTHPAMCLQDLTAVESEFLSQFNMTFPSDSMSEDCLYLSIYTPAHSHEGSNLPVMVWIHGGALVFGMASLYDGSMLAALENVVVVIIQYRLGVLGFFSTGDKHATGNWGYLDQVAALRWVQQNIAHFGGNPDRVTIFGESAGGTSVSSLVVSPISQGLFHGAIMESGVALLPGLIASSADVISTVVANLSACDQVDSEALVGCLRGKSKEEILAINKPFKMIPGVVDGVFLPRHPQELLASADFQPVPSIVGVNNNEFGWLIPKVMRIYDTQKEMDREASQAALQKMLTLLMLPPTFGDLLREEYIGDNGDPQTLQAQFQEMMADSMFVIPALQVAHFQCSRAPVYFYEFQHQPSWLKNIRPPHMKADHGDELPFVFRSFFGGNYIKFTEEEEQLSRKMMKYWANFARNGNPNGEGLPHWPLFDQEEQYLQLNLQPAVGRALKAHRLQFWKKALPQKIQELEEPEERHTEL

SMILES	pIC50 (Liver carboxylesterase 1)	Ratio IC50 (Homo sapiens)	pIC50 (Cocaine esterase)
CCOC(=O)[C@@]1(C)CC[C@]2(C)CC[C@]3(C)C(=CC(=O)[C@@H]4[C@@]5(C)CC[C@H](O)C(C)(C)[C@@H]5CC[C@]43C)[C@@H]2C1	4.58	4.6	5.24
CC1(C)C(=O)CC[C@]2(C)[C@H]3C(=O)C=C4[C@@H]5C[C@@](C)(C(=O)O)CC[C@]5(C)CC[C@@]4(C)[C@]3(C)CC[C@@H]12	< 4.00		< 4.00
COC(=O)[C@@]1(C)CC[C@]2(C)CC[C@]3(C)C(=CC(=O)[C@@H]4[C@@]5(C)CC[C@H](O)C(C)(C)[C@@H]5CC[C@]43C)[C@@H]2C1	4.65	4	5.25
CCOC(=O)[C@@]1(C)CC[C@]2(C)CC[C@]3(C)C(=CC(=O)[C@@H]4[C@@]5(C)CC[C@H](OC(=O)CCC(=O)O)C(C)(C)[C@@H]5CC[C@]43C)[C@@H]2C1	< 4.00	152	6.18
CCOC(=O)[C@@]1(C)CC[C@]2(C)CC[C@]3(C)C(=CC[C@@H]4[C@@]5(C)CC[C@H](O)C(C)(C)[C@@H]5CC[C@]43C)[C@@H]2C1	4.60	6.3	5.40
CCOC(=O)[C@@]1(C)CC[C@]2(C)CC[C@]3(C)C(=CC[C@@H]4[C@@]5(C)CC[C@H](OC(=O)CCC(=O)O)C(C)(C)[C@@H]5CC[C@]43C)[C@@H]2C1	4.69		
CC(=O)O[C@H]1CC[C@]2(C)[C@H]3C(=O)C=C4[C@@H]5C[C@@](C)(C(=O)OCCN(C)C)CC[C@]5(C)CC[C@@]4(C)[C@]3(C)CC[C@H]2C1(C)C	4.91	3.6	5.47
COc1cc2c(cc1CC=C(C)C)C(=O)C[C@@H](c1ccc(O)cc1)O2 [BAVACHININ A]	5.46	0.8	5.37
CC(=O)O[C@H]1CC[C@]2(C)[C@H]3C(=O)C=C4[C@@H]5C[C@@](C)(C(N)=O)CC[C@]5(C)CC[C@@]4(C)[C@]3(C)CC[C@H]2C1(C)C	4.96	1.5	5.13
CC1(C)[C@@H](O)CC[C@]2(C)[C@H]3C(=O)C=C4[C@@H]5C[C@@](C)(C(N)=O)CC[C@]5(C)CC[C@@]4(C)[C@]3(C)CC[C@@H]12	5.16	0.5	4.85
CC1(C)[C@@H](O)CC[C@]2(C)[C@H]3CC=C4[C@@H]5C[C@@](C)(C(=O)O)CC[C@]5(C)CC[C@@]4(C)[C@]3(C)CC[C@@H]12	4.98		
O=[N+]([O-])c1ccc(OP(=O)(O)Oc2ccc([N+](=O)[O-])cc2)cc1	6.85		
CC1(C)C(=O)CC[C@]2(C)[C@H]3CC=C4[C@@H]5C[C@@](C)(C(=O)O)CC[C@]5(C)CC[C@@]4(C)[C@]3(C)CC[C@@H]12	4.63		
CC(=O)O[C@H]1CC[C@]2(C)[C@H]3C(=O)C=C4[C@@H]5C[C@@](C)(C(=O)O)CC[C@]5(C)CC[C@@]4(C)[C@]3(C)CC[C@H]2C1(C)C [ACETOXOLONE]	4.30		
CN(C)CCOC(=O)[C@@]1(C)CC[C@]2(C)CC[C@]3(C)C(=CC(=O)[C@@H]4[C@@]5(C)CC[C@H](O)C(C)(C)[C@@H]5CC[C@]43C)[C@@H]2C1	5.04	2.3	5.40
CC1(C)[C@@H](O)CC[C@]2(C)[C@H]3C(=O)C=C4[C@@H]5C[C@@](C)(C(=O)O)CC[C@]5(C)CC[C@@]4(C)[C@]3(C)CC[C@@H]12 [ENOXOLONE]	4.68		
CC(=O)O[C@H]1CC[C@]2(C)[C@H]3C(=O)C=C4[C@@H]5C[C@@](C)(C#N)CC[C@]5(C)CC[C@@]4(C)[C@]3(C)CC[C@H]2C1(C)C	< 4.00		< 4.00
